In patent US20070202548A1, “SCREENING ASSAY TO IDENTIFY INHIBITORS OF THE MURD ENZYME USING AN ACTIVATOR-I[…] ENZYME” (priority 2002, published 2007):

Experiments:
[1] = target: T1, E. faecalis MurD (Enterococcus faecalis, UniProt O07108, A218V/A300V/N165D/T307K); experiment: stability of E. faecalis Mur D in DMSO; format: biochemical; conditions: DMSO concentration up to 5%, FIG. 4
[2] = test system: Staphylococcus aureus Mur D enzyme; experiment: salt activation of S. aureus MurD; format: biochemical; conditions: FIG. 2
[3] = target: T1, E. faecalis MurD; format: biochemical; conditions: FIG. 1 / FIG. 3
[4] = target: E. coli enzyme (MurD) (Escherichia coli, UniProt P14900); conditions: FIG. 3
E. coli enzyme (MurD), sequence (P14900 whole entry): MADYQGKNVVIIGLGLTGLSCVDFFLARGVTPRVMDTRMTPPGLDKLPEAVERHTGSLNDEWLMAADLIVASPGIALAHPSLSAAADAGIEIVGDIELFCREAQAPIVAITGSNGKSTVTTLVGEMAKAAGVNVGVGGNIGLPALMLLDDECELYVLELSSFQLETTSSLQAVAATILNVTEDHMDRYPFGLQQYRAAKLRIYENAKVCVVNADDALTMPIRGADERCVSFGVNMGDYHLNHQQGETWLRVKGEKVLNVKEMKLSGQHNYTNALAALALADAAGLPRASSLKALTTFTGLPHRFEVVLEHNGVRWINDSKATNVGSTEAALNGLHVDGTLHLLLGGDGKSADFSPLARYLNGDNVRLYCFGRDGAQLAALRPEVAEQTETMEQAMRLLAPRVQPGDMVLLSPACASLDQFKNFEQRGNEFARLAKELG

T1 sequence (O07108 whole entry N165D/A218V/A300V/T307K): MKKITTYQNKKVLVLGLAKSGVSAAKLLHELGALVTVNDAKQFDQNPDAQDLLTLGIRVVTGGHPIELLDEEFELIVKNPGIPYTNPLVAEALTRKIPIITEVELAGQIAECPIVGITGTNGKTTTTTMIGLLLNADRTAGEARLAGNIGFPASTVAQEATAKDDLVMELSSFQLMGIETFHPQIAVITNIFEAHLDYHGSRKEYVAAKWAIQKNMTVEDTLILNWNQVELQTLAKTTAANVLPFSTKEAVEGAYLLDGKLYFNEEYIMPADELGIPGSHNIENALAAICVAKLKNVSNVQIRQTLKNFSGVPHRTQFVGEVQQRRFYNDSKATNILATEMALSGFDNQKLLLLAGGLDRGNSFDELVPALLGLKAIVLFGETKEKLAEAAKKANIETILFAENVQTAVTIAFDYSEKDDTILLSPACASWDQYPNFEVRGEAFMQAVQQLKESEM

Row | SMILES | activation of S. aureus Mur D enzyme by cations [2] | effect of salt on E. faecalis MurD enzyme activity [3] | other results
1 | C[S+](C)[O-] [DMSO, dimethylsulfoxide] |  |  | effect of DMSO on E. faecalis MurD [1]: not affected
2 | [K+] [K^+, potassium] | activated |  | 
3 | N [NH4^+, ammonium] | activated |  | 
4 | O=S(=O)(O)O [SO4-ions] |  | inhibitor | 
5 | N.O=CO [ammonium formate] |  | independent | dependence of E. coli enzyme activity on presence of salt [4]: dependent
